In US20190093096A1, “COMOSAIN AND BROMELAINS AS IMMUNO-THERAPY IN THE TREATING AND/OR PREVENTING VARIOUS TYPES OF CANCER IN A MAMMAL” (priority 2017, published 2019):

Assays:
[1] = Blood analysis on rabbits fed high cholesterol diets; format: in vivo, New Zealand white rabbits; settings: for decrease of plasma total cholesterol as compared to control group / decrease of plasma triglycerides as compared to control group: 1% cholesterol diet plus 0.15% flavonoid
Procedure: The rabbits were fed for 8 weeks with free access to specific high cholesterol diets and water. Body weight was recorded every 7 days and the records were analyzed. […] (Rutin, quercetin and kaempherol were purchased from Aldrich-Sigma Co. St. Louis, Mo. USA) (Vitexin was purchased from Indofine Co. Sumerville, N.J. USA)
(Step B) After 8 weeks of breeding, the rabbits were anesthetized with injection of ketamine 75 mg/kg in the femoral muscle and sacrificed. Blood samples were collected from the heart of each rabbit to determine the blood analysis consisting of; complete blood count (CBC), Chemistry-7 and 24, (including Liver and renal function tests), lipid profiles, (including Total cholesterol, HDL, LDL, VLDL and triglycerides), coagulation factors consisting of; Prothrombin time (PT), Partial thromboplastin time (PTT), and immuno-globulin-E (an anti-allergenic factor).
The blood samples collected from rabbits of the six dietary groups were allowed to stand for 2 hours, then centrifuged at 4000 rpm for 10 minutes. (Megafuge, Baxter-Heraeus instrument Co. N.J., USA) The supernatants were separated and stored in a deep freeze before analysis. The chemistry analysis was carried out by blood chemistry analyzer (Cobras-Integra-700, Roche Diagnostic Lab. Indiana, USA) to determine the changes in total cholesterol, HDL, LDL, triglycerides, liver function tests (such as SGOT, SGPT, G-GPT) and coagulation factors (PT, PTT) (Bayer-MLA-Electra-900 Automatic coagulation timer). The results were tested by using student t-test and Microsoft excel-7.0 program. The results are depicted in Table III. • 3.

[2] = Fatty degeneration in the liver of the rabbits; format: in vivo, New Zealand white rabbits; settings: 1% cholesterol diet, 8 weeks
Text: According to the report of Fogt F. and Nanji A., (Toxicology and Applied Pharmacology; 136, pp 87-93, 1996) and Keegan A. et al., (Journal of Hepatology; 23, pp 591-600, 1995). Fatty degeneration of liver can be classified into four grades based upon the abnormal fat containing cells around the central vein of liver acinus, for example: grade 1 (0-25%), grade 2 (26-50%), grade 3 (51-75%), grade4 (76-100%). The effects of rutin, quercetin, kaempherol and vitexin on liver tissue on the rabbits from Example 4 Step B were examined.

[3] = Analysis for fatty streak deposition in thoracic aorta; format: in vivo, New Zealand white rabbits; settings: control group: thick layer; 1% cholesterol diet, 8 weeks
[4] = Toxicity of rutin, quercetin, kaempherol and vitexin in mice by oral administration; settings: for adverse effects on hematopeutic, renal, hepatic systems / toxicity: oral, mouse, rutin 1500, quercetin 1250, kaempherol 1000, vitexin 500 mg/kg; for body weight during observation / pathological abnormality of internal organs, visually or microscopically / survival at day 180: single oral dose; for body weight during observation: 180 days of observation; for pathological abnormality of internal organs, visually or microscopically: sacrifice on day 181; for survival at day 180: rutin 1500, kaempherol 1000, vitexin 500 mg/kg
breast cancer cell line = experiment: Growth inhibition of breast cancer cell line by Quercetin and Naringenin in vitro; format: cell-based
lung cancer cells = experiment: Inhibition of tumor cell growth of lung cancer by pepsin and trypsin in vitro; format: cell-based; settings: 72 hours at 37 C, 10% CO2, Coulter counter
Text: The graph represents the two experiments with Pepsin and Trypsin.

| Molecule | liver function and WBC ([1]; rabbit, in vivo) | decrease of plasma total cholesterol as compared to control group ([1]; rabbits, 8 weeks) | decrease of plasma triglycerides as compared to control group ([1]; rabbits, 8 weeks) | reducing plasma total cholesterol and triglycerides, compared with Simvastatin ([1]; rabbits, 8 weeks) | microscopic features of the liver (fat containing cells) [2] | macrophage lipid cell complex in the aorta walls (microscopic pictures) [3] | adverse effects on hematopeutic, renal, hepatic systems [4] | toxicity [4] | body weight during observation [4] | pathological abnormality of internal organs, visually or microscopically [4] | survival at day 180 [4] | growth of breast cancer cell line (breast cancer cell line) | liver function and WBC ([1]; rabbits, 8 weeks, unlike the Simvastatin group) | tumor cell growth of lung cancer (lung cancer cells) |
| --- | --- | --- | --- | --- | --- | --- | --- | --- | --- | --- | --- | --- | --- | --- |
| O=c1c(O)c(-c2ccc(O)cc2)oc2cc(O)cc(O)c12 [Kaempherol, 3,5,7,4′ tetra-hydroxy-flavone] | not affected | 30% | 22% | more effective | almost all of the liver cells are normal without containing fat particles | no or a very thin layer of macrophage lipid cell complex | no adverse effects | no toxicity | no body weight loss | did not develop any pathological abnormality | All mice were alive |  |  |  |
| O=C1C[C@@H](c2ccc(O)cc2)Oc2cc(O)cc(O)c21 [Naringenin] |  |  |  |  |  |  |  |  |  |  |  | Growth inhibition |  |  |
| O=c1c(O)c(-c2ccc(O)c(O)c2)oc2cc(O)cc(O)c12 [Quercetin, 3,5,7,3′,4′ penta-hydroxy flavone] | not affected | 33% | 47% | more effective | almost all of the liver cells are normal without containing fat particles | no or a very thin layer of macrophage lipid cell complex | no adverse effects |  | no body weight loss | did not develop any pathological abnormality | All mice were alive | Growth inhibition |  |  |
| C[C@@H]1O[C@@H](OC[C@H]2O[C@@H](Oc3c(-c4ccc(O)c(O)c4)oc4cc(O)cc(O)c4c3=O)[C@H](O)[C@@H](O)[C@@H]2O)[C@H](O)[C@H](O)[C@H]1O [Rutin, Quercetin-3-rutinoside] |  | 32% | 45% |  |  |  | no adverse effects | no toxicity | no body weight loss | did not develop any pathological abnormality | All mice were alive |  | not affected |  |
| O=c1cc(-c2ccc(O)cc2)oc2c(C3O[C@H](CO)[C@@H](O)[C@H](O)[C@H]3O)c(O)cc(O)c12 (stereo partly drawn) [Vitexin, 8-D-glucosyl-4′,5,7 trihydroxy-flavone] | not affected | 30% | 17% | more effective | almost all of the liver cells are normal without containing fat particles | no or a very thin layer of macrophage lipid cell complex | no adverse effects | no toxicity | no body weight loss | did not develop any pathological abnormality | All mice were alive |  |  |  |
| pepsin: proteinase purchased from Sigma-Aldrich |  |  |  |  |  |  |  |  |  |  |  |  |  | Inhibition of tumor cell growth |
| trypsin: proteinase purchased from Sigma-Aldrich (protein, UniProt P00760 24-246, looked up) Serine protease 1: IVGGYTCGANTVPYQVSLNSGYHFCGGSLINSQWVVSAAHCYKSGIQVRLGEDNINVVEGNEQFISASKSIVHPSYNSNTLNNDIMLIKLKSAASLNSRVASISLPTSCASAGTQCLISGWGNTKSSGTSYPDVLKCLKAPILSDSSCKSAYPGQITSNMFCAGYLEGGKDSCQGDSGGPVVCSGKLQGIVSWGSGCAQKNKPGVYTKVCNYVSWIKQTIASN |  |  |  |  |  |  |  |  |  |  |  |  |  | Inhibition of tumor cell growth |
